Measured values: patent EP2818472A1, “Imidazo[4,5-c]pyridine and pyrrolo[3,2-c]pyridine compounds as G-protein-coupled receptor kinase 5 (GRK5) modulators” (Max-Planck-Gesellschaft zur Förderung der Wissenschaften …, priority 2013, dated 2014)

test system: beta-TC6 cells; assay: Insulin HTRF assay (relative activity Ar) in beta-TC6 cells; assay type: cell-based, mouse; details: Mus musculus, Beta-TC6, 4 h, insulin HTRF, supernatant of beta-TC6 cells, incubation with test compound at 37°C for 2, 3, 4h; read-out: Ar (relative activity)
Text: For further screening of compounds derived from compounds described above for their ability to regulate insulin release an insulin HTRF® (Homogeneous Time-Resolved Fluorescence; Cisbio International, France) was used. This assay is based on two antibodies against insulin binding to different epitopes of insulin. One of these antibodies is coupled to Europium (Ab-Eu-Cryptate) and the other one to the fluorophore XL665 (Ab-XL665). If the insulin is secreted into the supernatant of cell culture, both antibodies can bind to insulin and come therefore into close proximity, which allows upon excitation that energy transfer between (FRET) the long-life fluorescent donor Europium (cryptate) and the acceptors XL665. FRET increases proportionally with insulin concentration.
The automated assay protocol is as follows: • On day 1, 15k beta-TC6 cells per well were seeded for 24 or 48 h in 50 µL complete medium. On day 2 or respective on day 3, the medium is removed and cells are washed with 60 µL 1xPBS and 20 µL induction buffer is added using BioTek washer. Subsequently, 10 µL Sunitininb (5 -µM f.c.) or the test compound in induction buffer; 0.5% f.c. DMSO (CyBi-well) is transferred to the cells. The cells are then incubated at 37°C for 2, 3, 4h.
First 10 µL supernatant is transferred from the cell plates in HTRF plates (CyBi-well). 10 µL of 0, 1, 2, and 4 ng/ml insulin standard controls in assay medium is used as a control. To each well 10 µL of combined 1:25 Ab-XL665 (Acc) and 1:20 Ab-Eu-Cryptate (WellMate) are added and incubated for 120 min at RT in the dark. Finally HTRF is measured on ViewLux ultra high throughput microplate imager (PerkinElmer).
The evaluation software DataFactoty derives relative activities Ar according to the following equation: Ar = (V-R(0%control))/(R(100%control) -R0%control)) × 100 [formula]
The activity of the compounds was classified according to their Ar (relative activity) into the following ranges: […]

`CN1CCN(c2ccc(Nc3cc4c(cn3)cc(-c3ccc(C(=O)N(C)C)cc3)n4C)cc2)CC1` [Compound 49, N,N-dimethyl-4-[1-methyl-6-[4-(4-methylpiperazin-1-yl)anilino]pyrrolo[3,2-c]pyridin-2-yl]benzamide] and `CN(C)C(=O)c1ccc(-c2cc3cnc(Nc4cccc(O)c4)cc3n2C)cc1` [Compound 53, 4-[6-(3-hydroxyanilino)-1-methyl-pyrrolo[3,2-c]pyridin-2-yl]-N,N-dimethyl-benzamide] fall in the same range of Emax: 50 to 100% for the first, 50 to 100% for the second.

`CN(C)C(=O)c1ccc(-c2cc3cnc(Nc4cccc(N(C)C)c4)cc3n2C)cc1` [Compound 50, 4-[6-[3-(dimethylamino)anilino]-1-methyl-pyrrolo[3,2-c]pyridin-2-yl]-N,N-dimethyl-benzamide] and `CC(=O)Nc1cccc(Nc2cc3c(cn2)cc(-c2ccc(C(=O)N(C)C)cc2)n3C)c1` [Compound 56, 4-[6-(3-acetamidoanilino)-1-methyl-pyrrolo[3,2-c]pyridin-2-yl]-N,N-dimethyl-benzamide] fall in the same range of Emax: 50 to 100% for the first, 50 to 100% for the second.

Compared with `CN(C)C(=O)c1ccc(-c2cc3cnc(Nc4ccccn4)cc3n2C)cc1` [Compound 51, N,N-dimethyl-4-[1-methyl-6-(2-pyridylamino)pyrrolo[3,2-c]pyridin-2-yl]benzamide], `CN(C)c1ccc(-c2cc3cnc(Nc4ccccn4)cc3n2C)cc1` [Compound 59, 2-(4-dimethylaminophenyl)-1-methyl-N-(2-pyridyl)pyrrolo[3,2-c]pyridin-6-amine] is lower in Emax: 30 to 50% for the first, 0 to 30% for the second.

First: CN(C)C(=O)c1ccc(-c2cc3cnc(N(C)c4ccccc4)cc3n2C)cc1 [Compound 52, N,N-dimethyl-4-[1-methyl-6-(N-methylanilino)pyrrolo[3,2-c]pyridin-2-yl]benzamide]
Second: COc1ccc(Nc2cc3c(cn2)cc(-c2ccc(C(=O)N(C)C)cc2)n3C)cc1O [Compound 54, 4-[6-(3-hydroxy-4-methoxy-anilino)-1-methyl-pyrrolo[3,2-c]pyridin-2-yl]-N,N-dimethyl-benzamide]
The Emax of the first is lower: 30 to 50% for the first, 50 to 100% for the second.

Compared with `CN(C)C(=O)c1ccc(-c2cc3cnc(Nc4cccc(NS(C)(=O)=O)c4)cc3n2C)cc1` [Compound 55, 4-[6-[3-(methanesulfonamido)anilino]-1-methyl-pyrrolo[3,2-c]pyridin-2-yl]-N,N-dimethyl-benzamide], `CC(=O)Nc1ccc(Nc2cc3c(cn2)cc(-c2ccc(C(=O)N(C)C)cc2)n3Cc2ccccc2)cc1` [Compound 57, 4-[6-(4-acetamidoanilino)-1-benzyl-pyrrolo[3,2-c]pyridin-2-yl]-N,N-dimethyl-benzamide] is lower in Emax: 50 to 100% for the first, 30 to 50% for the second.

First: CN(C)C(=O)c1ccc(-c2cc3cnc(Nc4ccncn4)cc3n2Cc2ccccc2)cc1 [Compound 58, 4-[1-benzyl-6-(pyrimidin-4-ylamino)pyrrolo[3,2-c]pyridin-2-yl]-N,N-dimethyl-benzamide]
Second: CN(C)c1ccc(-c2cc3cnc(Nc4ccncn4)cc3n2Cc2ccccc2)cc1 [Compound 61, 1-benzyl-2-(4-dimethylaminophenyl)-N-pyrimidin-4-yl-pyrrolo[3,2-c]pyridin-6-amine]
The Emax of the first is higher: 30 to 50% for the first, 0 to 30% for the second.

First: CN(C)c1ccc(-c2cc3cnc(Nc4cccc(O)c4)cc3n2Cc2ccccc2)cc1 [Compound 60, 3-[[1-benzyl-2-(4-dimethylaminophenyl)pyrrolo[3,2-c]pyridin-6-yl]amino]phenol]
Second: Cc1cccc(Nc2cc3[nH]c(-c4ccccn4)cc3cn2)c1 [Compound 64, N-(m-tolyl)-2-(2-pyridyl)-1H-pyrrolo[3,2-c]pyridin-6-amine]
The Emax of the first is lower: 0 to 30% for the first, 50 to 100% for the second.

First: COc1cc(Nc2cc3[nH]c(-c4ccccn4)cc3cn2)cc(OC)c1OC [Compound 62, 2-(2-pyridyl)-N-(3,4,5-trimethoxyphenyl)-1H-pyrrolo[3,2-c]pyridin-6-amine]
Second: COc1ccc(Nc2cc3[nH]c(-c4ccccn4)cc3cn2)c(C)c1 [Compound 63, N-(4-methoxy-2-methyl-phenyl)-2-(2-pyridyl)-1H-pyrrolo[3,2-c]pyridin-6-amine]
The Emax of the first is higher: > 100% for the first, 50 to 100% for the second.
